The values that follow come from US10344048B2, “Certain chemical entities, compositions, and methods” (priority 2011, dated 2019).

pIC50: −log10 of the molar value. Where two headings read alike, the source gives them in different places.

This experiment has as its system A549 cells. The experiment is described as follows: Inhibition of cell growth in tumor cells, MTT assay. The class given is cell-based. To be noted: Homo sapiens, read-out: A549 cell IC50. As for the experimental part: Inhibition of cell growth by compounds was measured using MTT assay (Mosmann, T., Journal of Immunological Methods, 1983, 65, 55-63). Tumor cell lines were purchased from ATCC (American Type Culture Collection, Manassas, Va.). All cell lines were maintained in RPMI 1640 (Hyclone) supplemented with 10% fetal bovine serum (FBS, Hyclone), glutamine (2 mM, Hyclone), and antibiotics (penicillin 100 U/mL and streptomycin 50 μg/mL) at 37° C. in a humidified atmosphere of 5% CO2 in air. Taxol (positive control, Sigma) and compounds were dissolved in DMSO (Sigma), and the final concentration of DMSO in the medium was 1%. Tumor cells were plated in 96-well plates at densities from 4000 cells/well of a 96-well plate and allowed to adhere/grow for 24 h. They were then treated with various concentrations of drug for 72 h. […] The number of cells remaining after 72 h was compared to the number of viable cells at the time of compound addition by measuring the absorbance at 570 nm, allowing for the calculation of growth inhibition.
All concentrations of compounds were tested in triplicate and controls were averaged over 4 wells. IC50 was calculated by plotting the concentration of compound vs the percentage of inhibition in treated wells using GraphPad Prism 5. […]
In general terms: Tetrazolium assays rely on reduction of a dye to a coloured formazan, in cell work by metabolically active cells.

For orientation: pIC50 means the IC50 on a negative log10 scale, so that one unit is a factor of ten. As for `C[C@]12CC[C@H](OC(=O)N3CCNCC3)C[C@H]1CC[C@@H]1[C@@H]2CC[C@]2(C)[C@@H](C3=CC(=O)OC3)CC[C@]12O` [(3S,5R,8R,9S,10S,13R,14S,17R)-14-hydroxy-10,13-dimethyl-17-(5-oxo-2,5-dihydrofuran-3-yl)hexadecahydro-1H-cyclopenta[a]phenanthren-3-yl piperazine-1-carboxylate], for the setting “A549 cells, MTT assay, 72 h compound exposure”, the pIC50 is 7.41. For `CC(=O)O[C@H]1C[C@]2(O)[C@@H]3CC[C@@H]4C[C@@H](OC(=O)N5CCNCC5)CC[C@]4(C)[C@H]3CC[C@]2(C)[C@H]1c1ccc(=O)oc1` [(3S,5R,8R,9S,10S,13R,14S,16S,17R)-16-acetoxy-14-hydroxy-10,13-dimethyl-17-(2-oxo-2H-pyran-5-yl)hexadecahydro-1H-cyclopenta[a]phenanthren-3-yl piperazine-1-carboxylate], the pIC50 (A549, 72 h) was 8.25.
